Assay results as given in ChEMBL document CHEMBL1144945, “Development of progesterone receptor antagonists from 1,2-dihydrochromeno[3,4-f]quinoline agonist pharmacophore” (Bioorg Med Chem Lett, 2003).
The source made the active and inactive calls. The rule behind the calls is not given here.

Assays:
[1] = target: T1, Glucocorticoid receptor (Homo sapiens) (UniProt P04150); assay: Antagonist efficacy for glucocorticoid receptor; not active; assay type: functional
T1 sequence (whole entry): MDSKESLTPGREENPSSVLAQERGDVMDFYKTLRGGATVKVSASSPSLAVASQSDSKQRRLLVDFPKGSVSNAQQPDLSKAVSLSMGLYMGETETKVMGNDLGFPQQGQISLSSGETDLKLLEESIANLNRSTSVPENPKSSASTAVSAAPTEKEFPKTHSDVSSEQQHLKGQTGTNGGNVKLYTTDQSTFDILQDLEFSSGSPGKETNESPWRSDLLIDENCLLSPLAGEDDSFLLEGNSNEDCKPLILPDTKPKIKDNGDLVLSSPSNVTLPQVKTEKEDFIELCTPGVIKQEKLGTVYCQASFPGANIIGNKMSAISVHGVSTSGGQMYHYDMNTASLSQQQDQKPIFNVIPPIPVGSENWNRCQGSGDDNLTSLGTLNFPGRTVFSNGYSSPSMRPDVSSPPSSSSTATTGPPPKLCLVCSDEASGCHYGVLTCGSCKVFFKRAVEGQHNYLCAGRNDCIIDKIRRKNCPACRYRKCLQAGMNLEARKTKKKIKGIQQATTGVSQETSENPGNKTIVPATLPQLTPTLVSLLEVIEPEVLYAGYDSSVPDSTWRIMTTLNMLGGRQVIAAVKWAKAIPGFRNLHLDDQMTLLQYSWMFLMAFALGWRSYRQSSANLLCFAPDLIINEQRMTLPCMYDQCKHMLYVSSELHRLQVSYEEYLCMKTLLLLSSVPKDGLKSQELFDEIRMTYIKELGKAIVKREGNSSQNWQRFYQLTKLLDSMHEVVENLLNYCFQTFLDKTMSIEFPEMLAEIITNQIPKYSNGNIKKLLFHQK

[2] = target: T1, Glucocorticoid receptor (Homo sapiens); assay: Antagonist efficacy for glucocorticoid (hGR) receptor; assay type: functional
[3] = target: T2, Progesterone receptor (Homo sapiens) (UniProt P06401); assay: Antagonist efficacy for human progesterone in T47D human breast cancer cell; assay type: functional, cell-based
T2 sequence (whole entry): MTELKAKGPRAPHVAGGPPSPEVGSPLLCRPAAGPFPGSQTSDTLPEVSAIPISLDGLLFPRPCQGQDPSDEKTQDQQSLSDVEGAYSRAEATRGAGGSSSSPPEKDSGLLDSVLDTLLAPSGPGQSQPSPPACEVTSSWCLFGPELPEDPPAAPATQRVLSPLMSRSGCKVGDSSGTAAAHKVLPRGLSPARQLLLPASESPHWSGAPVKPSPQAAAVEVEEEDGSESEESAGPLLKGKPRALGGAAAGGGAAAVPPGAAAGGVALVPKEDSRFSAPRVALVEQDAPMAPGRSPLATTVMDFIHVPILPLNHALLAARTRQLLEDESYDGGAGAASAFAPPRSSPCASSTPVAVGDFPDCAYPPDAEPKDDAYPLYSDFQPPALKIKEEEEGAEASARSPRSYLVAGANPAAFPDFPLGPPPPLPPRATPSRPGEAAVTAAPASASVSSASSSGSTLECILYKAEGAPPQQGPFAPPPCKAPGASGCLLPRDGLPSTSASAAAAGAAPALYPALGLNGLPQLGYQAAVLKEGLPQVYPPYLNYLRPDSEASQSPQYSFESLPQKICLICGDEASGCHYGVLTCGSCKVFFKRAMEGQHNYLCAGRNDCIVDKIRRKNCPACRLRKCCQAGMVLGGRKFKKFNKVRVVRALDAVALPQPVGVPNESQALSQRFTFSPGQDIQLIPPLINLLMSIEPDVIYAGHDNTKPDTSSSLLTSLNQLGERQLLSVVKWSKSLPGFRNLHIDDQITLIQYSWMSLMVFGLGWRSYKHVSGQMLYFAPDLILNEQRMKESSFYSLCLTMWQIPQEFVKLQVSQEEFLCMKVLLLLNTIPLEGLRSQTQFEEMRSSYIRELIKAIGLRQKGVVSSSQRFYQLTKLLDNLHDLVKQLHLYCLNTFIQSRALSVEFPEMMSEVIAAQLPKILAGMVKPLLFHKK

Row | Efficacy [1] | Efficacy [2] [%] | Efficacy [3] [%] | Structure (SMILES)
1 | inactive | – | – | CC1CC(C)(C)Nc2ccc3c(c21)COc1c(F)cc(F)cc1-3 (stereo not drawn)
2 | – | 57 | 52 | CC1=CC(C)(C)Nc2ccc3c(c21)COc1c(F)cc(F)cc1-3
